ChEMBL document CHEMBL4002641, “Indolyl-naphthyl-maleimides as potent and selective inhibitors of protein kinase C-α/β” (Bioorg Med Chem Lett, 2017)

Experiments:
[1] = biological target: T1, Protein kinase C theta type (Homo sapiens, UniProt Q04759); assay: Inhibition of PKCtheta (unknown origin) after 60 mins in presence of [gamma33P]ATP by scintillation proximity assay
[2] = biological target: T2, Protein kinase C epsilon type (Homo sapiens, UniProt Q02156); assay: Inhibition of PKCepsilon (unknown origin) after 60 mins in presence of [gamma33P]ATP by scintillation proximity assay
T2 sequence (Q02156 whole entry): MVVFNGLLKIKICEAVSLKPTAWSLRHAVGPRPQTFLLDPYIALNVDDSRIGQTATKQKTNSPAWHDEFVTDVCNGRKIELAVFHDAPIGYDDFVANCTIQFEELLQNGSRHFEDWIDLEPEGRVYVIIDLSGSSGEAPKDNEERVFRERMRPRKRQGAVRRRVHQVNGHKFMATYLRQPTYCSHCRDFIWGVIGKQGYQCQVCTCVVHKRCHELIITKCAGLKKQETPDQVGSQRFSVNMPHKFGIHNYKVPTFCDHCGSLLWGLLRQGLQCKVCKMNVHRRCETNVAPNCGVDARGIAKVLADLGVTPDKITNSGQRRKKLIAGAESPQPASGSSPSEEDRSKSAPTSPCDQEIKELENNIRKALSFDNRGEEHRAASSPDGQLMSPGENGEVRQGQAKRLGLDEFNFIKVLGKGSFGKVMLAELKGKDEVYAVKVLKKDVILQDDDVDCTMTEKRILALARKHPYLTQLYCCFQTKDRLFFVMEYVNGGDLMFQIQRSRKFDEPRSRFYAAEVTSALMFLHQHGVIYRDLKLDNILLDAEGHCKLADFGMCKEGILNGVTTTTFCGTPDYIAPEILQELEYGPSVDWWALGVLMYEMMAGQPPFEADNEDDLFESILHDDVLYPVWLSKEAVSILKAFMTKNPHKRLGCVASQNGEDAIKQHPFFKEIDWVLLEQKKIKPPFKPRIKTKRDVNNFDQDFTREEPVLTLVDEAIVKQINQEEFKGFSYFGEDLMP

[3] = Aqueous solubility of the compound; assay type: physicochemical; settings: buffer
[4] = biological target: T3, Protein kinase C alpha type (Homo sapiens, UniProt P17252); assay: Inhibition of PKCalpha (unknown origin) after 60 mins in presence of [gamma33P]ATP by scintillation proximity assay
[5] = biological target: Protein kinase C eta type (Homo sapiens, UniProt P24723); assay: Inhibition of PKCeta (unknown origin) after 60 mins in presence of [gamma33P]ATP by scintillation proximity assay
Chain of Protein kinase C eta type (P24723 whole entry): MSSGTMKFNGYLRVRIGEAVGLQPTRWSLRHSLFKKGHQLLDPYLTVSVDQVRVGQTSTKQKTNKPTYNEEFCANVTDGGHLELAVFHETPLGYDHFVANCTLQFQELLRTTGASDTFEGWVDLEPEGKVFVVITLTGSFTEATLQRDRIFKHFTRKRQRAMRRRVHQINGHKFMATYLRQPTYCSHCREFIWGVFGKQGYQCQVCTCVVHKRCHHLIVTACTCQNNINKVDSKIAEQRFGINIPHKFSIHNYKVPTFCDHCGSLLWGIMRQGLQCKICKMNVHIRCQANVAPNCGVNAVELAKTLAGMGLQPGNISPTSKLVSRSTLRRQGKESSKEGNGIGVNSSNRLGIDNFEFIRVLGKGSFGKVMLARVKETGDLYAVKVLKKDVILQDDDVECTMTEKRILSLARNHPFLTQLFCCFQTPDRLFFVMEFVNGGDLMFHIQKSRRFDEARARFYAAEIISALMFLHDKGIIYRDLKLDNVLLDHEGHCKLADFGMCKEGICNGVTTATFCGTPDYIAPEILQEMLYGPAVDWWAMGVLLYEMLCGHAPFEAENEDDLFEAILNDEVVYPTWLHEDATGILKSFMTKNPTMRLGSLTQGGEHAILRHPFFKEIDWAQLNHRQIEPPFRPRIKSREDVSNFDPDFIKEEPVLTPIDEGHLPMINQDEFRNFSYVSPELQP

[6] = biological target: Protein kinase C delta type (Homo sapiens, UniProt Q05655); assay: Inhibition of PKCdelta (unknown origin) after 60 mins in presence of [gamma33P]ATP by scintillation proximity assay
Chain of Protein kinase C delta type (Q05655 whole entry): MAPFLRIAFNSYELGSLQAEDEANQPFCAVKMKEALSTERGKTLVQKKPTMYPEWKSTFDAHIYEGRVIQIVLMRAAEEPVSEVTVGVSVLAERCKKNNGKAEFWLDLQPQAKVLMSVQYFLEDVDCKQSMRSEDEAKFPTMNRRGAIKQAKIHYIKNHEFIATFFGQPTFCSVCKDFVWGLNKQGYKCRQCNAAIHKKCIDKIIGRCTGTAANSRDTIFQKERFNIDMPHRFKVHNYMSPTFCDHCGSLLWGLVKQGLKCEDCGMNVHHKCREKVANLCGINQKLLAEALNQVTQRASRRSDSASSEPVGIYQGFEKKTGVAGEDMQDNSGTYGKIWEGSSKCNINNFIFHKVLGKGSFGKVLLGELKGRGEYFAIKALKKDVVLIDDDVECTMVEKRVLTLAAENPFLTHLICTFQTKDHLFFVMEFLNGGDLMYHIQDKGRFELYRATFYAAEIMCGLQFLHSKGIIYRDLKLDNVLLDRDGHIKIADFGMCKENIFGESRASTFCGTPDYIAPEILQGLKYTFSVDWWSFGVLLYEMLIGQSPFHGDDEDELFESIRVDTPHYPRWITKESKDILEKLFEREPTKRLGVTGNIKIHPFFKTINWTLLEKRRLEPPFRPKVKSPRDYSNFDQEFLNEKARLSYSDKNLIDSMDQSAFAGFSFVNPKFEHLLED

PBMC = assay: Inhibition of human PBMC proliferation assessed as decrease in [3H]-TdR uptake after 6 days by mixed lymphocyte reaction assay; assay type: functional, cell-based
[7] = biological target: T4, Protein kinase C beta type (Homo sapiens, UniProt P05771); assay: Inhibition of PKCbeta1 (unknown origin) after 60 mins in presence of [gamma33P]ATP by scintillation proximity assay
T4 sequence (P05771 whole entry): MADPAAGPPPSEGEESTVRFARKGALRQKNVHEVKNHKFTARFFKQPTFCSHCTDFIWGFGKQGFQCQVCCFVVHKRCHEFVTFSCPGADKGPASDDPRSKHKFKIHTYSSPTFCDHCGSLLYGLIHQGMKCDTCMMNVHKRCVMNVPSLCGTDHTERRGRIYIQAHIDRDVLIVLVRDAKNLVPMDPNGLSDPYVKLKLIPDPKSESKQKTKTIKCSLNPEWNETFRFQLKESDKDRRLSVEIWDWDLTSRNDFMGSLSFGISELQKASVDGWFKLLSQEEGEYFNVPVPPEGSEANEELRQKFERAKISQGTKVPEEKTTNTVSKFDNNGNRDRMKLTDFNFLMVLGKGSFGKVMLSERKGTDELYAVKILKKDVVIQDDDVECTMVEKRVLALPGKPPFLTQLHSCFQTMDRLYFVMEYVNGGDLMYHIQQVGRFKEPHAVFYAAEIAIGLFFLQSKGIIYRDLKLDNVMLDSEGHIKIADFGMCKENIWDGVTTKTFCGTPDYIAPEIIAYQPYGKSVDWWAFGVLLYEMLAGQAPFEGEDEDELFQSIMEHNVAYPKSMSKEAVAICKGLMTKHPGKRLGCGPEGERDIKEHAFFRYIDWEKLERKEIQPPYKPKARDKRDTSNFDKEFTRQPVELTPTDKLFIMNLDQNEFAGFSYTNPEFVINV

[8] = biological target: T1, Protein kinase C theta type; assay: Inhibition of PKCtheta in human Jurkat T cells assessed as reduction in anti-CD3/CD28 antibody-induced T-cell activation by measuring decrease in IL-2 secretion after 5 hrs by luciferase reporter gene assay; assay type: cell-based
[9] = biological target: T3, Protein kinase C alpha type; assay: Reversible competitive inhibition of PKCalpha (unknown origin)
[10] = biological target: T5, Cyclin-dependent kinase 2 (Homo sapiens, UniProt P24941); assay: Inhibition of CDK2 (unknown origin) at 1 uM
[11] = biological target: T4, Protein kinase C beta type; assay: Reversible competitive inhibition of PKCbeta1 (unknown origin)
[12] = biological target: T5, Cyclin-dependent kinase 2; assay: Inhibition of CDK2 (unknown origin)

T1 sequence (Q04759 whole entry): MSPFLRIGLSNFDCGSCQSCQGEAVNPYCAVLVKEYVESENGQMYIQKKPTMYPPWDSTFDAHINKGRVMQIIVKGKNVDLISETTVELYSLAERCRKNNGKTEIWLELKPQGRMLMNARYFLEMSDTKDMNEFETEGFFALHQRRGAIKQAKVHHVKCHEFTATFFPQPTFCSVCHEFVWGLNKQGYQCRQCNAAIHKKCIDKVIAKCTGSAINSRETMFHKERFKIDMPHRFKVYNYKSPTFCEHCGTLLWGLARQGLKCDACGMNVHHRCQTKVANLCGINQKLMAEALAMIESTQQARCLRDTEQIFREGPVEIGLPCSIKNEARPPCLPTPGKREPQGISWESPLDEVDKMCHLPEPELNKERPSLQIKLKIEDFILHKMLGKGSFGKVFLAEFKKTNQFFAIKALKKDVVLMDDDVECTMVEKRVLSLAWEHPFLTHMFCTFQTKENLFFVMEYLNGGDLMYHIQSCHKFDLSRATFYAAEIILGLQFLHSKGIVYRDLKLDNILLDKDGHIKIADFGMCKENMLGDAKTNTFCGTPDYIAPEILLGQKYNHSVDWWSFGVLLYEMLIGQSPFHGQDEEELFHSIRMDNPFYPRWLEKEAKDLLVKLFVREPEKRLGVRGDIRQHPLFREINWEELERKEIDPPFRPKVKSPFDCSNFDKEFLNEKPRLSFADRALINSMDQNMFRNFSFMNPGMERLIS

Row | SMILES | IC50 [1] [nM] | IC50 [2] [nM] | solubility [3] | IC50 [4] [nM] | IC50 [5] [nM] | IC50 [6] [nM] | IC50 [7] [nM] | IC50 [8] [nM] | Ki [9] [nM] | inhibition [10] [%] | Ki [11] [nM] | IC50 [12] [nM] | IC50 (PBMC) [nM]
1 | Cn1cc(C2=C(c3c(Cl)ccc4ccc(CN)cc34)C(=O)NC2=O)c2ccccc21 | > 316 | > 316 | – | 4.7 | > 316 | 254 | 3.3 | – | – | – | – | – | –
2 | Cn1cc(C2=C(c3cccc4ccc(CN)cc34)C(=O)NC2=O)c2ccccc21 | > 316 | > 316 | – | 73 | > 316 | > 316 | 93 | – | – | – | – | – | –
3 | Cc1ccc2ccc(CN)cc2c1C1=C(c2c[nH]c3ccccc23)C(=O)NC1=O | > 316 | > 316 | – | 49 | > 316 | > 316 | 43 | – | – | – | – | – | –
4 | CN(Cc1ccc2ccc(Cl)c(C3=C(c4cn(C)c5ccccc45)C(=O)NC3=O)c2c1)C1CC1 | > 316 | > 316 | Insoluble | 63 | > 316 | > 316 | 60 | > 3550 | – | – | – | – | –
5 | Cc1ccc2ccc(CN)cc2c1C1=C(c2cn(C)c3ccccc23)C(=O)NC1=O | > 316 | > 316 | – | 95 | > 316 | > 316 | 42 | – | – | – | – | – | –
6 | NCc1ccc2cccc(C3=C(c4c[nH]c5ccccc45)C(=O)NC3=O)c2c1 | > 316 | > 316 | – | 36 | > 316 | > 316 | 75 | – | – | – | – | – | –
7 | CN(C)Cc1ccc2ccc(Cl)c(C3=C(c4cn(C)c5ccccc45)C(=O)NC3=O)c2c1 | 263 | 402 | Insoluble | 4 | 565 | 214 | 3.7 | 402 | 1 | > 50 | 0.5 | 220 | 277
8 | CC(=O)N(C)Cc1ccc2ccc(Cl)c(C3=C(c4cn(C)c5ccccc45)C(=O)NC3=O)c2c1 | > 316 | > 316 | – | 63 | > 316 | 284 | 41 | – | – | – | – | – | –
9 | CN1CCN(c2nc(C3=C(c4c[nH]c5ccccc45)C(=O)NC3=O)c3ccccc3n2)CC1 [SOTRASTAURIN] | – | – | – | – | – | – | – | 81 | – | – | – | – | 28

The remaining compounds from weak to strong by IC50 [2], led by results:

Row | IC50 [1] [nM] | IC50 [2] [nM] | solubility [3] | IC50 [4] [nM] | IC50 [5] [nM] | IC50 [6] [nM] | IC50 [7] [nM] | IC50 [8] [nM] | Ki [9] [nM] | inhibition [10] [%] | Ki [11] [nM] | IC50 [12] [nM] | SMILES | IC50 (PBMC) [nM]
10 | 276 | 225 | – | 136 | 308 | 92 | 133 | – | – | – | – | – | Cn1cc(C2=C(c3cccc4cc(CN)ccc34)C(=O)NC2=O)c2ccccc21 | –
11 | 254 | 223 | – | 3.4 | 316 | 230 | 2 | – | – | – | – | – | Cn1cc(C2=C(c3c(Cl)ccc4ccc(CN5CCC5)cc34)C(=O)NC2=O)c2ccccc21 | –
12 | 216 | 182 | Insoluble | 0.5 | 316 | 303 | 0.7 | 708 | – | – | – | – | CN(C)Cc1ccc2ccc(Cl)c(C3=C(c4c[nH]c5ccccc45)C(=O)NC3=O)c2c1 | 406
13 | 21 | 110 | – | 2.8 | 206 | 39 | 3.1 | – | – | – | – | – | COCCNCc1ccc2ccc(Cl)c(C3=C(c4cn(C)c5ccccc45)C(=O)NC3=O)c2c1 | –
14 | 101 | 73 | – | 2.7 | 182 | 79 | 2.9 | – | – | – | – | – | CC(C)NCc1ccc2ccc(Cl)c(C3=C(c4cn(C)c5ccccc45)C(=O)NC3=O)c2c1 | –
15 | 21 | 30 | – | 0.5 | 34 | 15 | 1.4 | – | – | – | – | – | CNCc1ccc2ccc(Cl)c(C3=C(c4cn(C)c5ccccc45)C(=O)NC3=O)c2c1 | –
16 | – | 18 | Insoluble | 3.7 | 30 | 17 | 6.8 | 185 | – | – | – | – | CN(C)Cc1ccc2c(C3=C(c4cn(C)c5ccccc45)C(=O)NC3=O)c(Cl)ccc2c1 | 54
17 | 12 | 4.3 | Insoluble | 1.8 | – | – | 3.4 | 156 | – | – | – | – | CN(C)Cc1ccc2c(C3=C(c4c[nH]c5ccccc45)C(=O)NC3=O)c(Cl)ccc2c1 | 59
